Test results from the NIST ThermoML archive (doi:10.1016/j.jct.2013.10.025).
Numbers after ± are expanded uncertainties.

Settings: 298.15 K, 101.33 kPa, Liquid; for viscosity: Capillary tube (Ostwald / Ubbelohde) method; for speed of sound: Sing-around technique in a fixed-path interferometer; for mass density: Vibrating tube method

| SMILES | viscosity [mPa·s] | speed of sound [m/s] | mass density [kg/m3] |
| --- | --- | --- | --- |
| CCCCCCCCCCO [decan-1-ol] | 10.61 ± 0.37 | 1379.3 ± 1.6 | 826.407 ± 0.24 |
| CCCCCCO [hexan-1-ol] | 4.436 ± 0.36 | 1303.5 ± 1.5 | 815.295 ± 0.24 |
| CCCCCCCCO [octan-1-ol] | 7.446 ± 0.36 | 1347.9 ± 1.5 | 821.837 ± 0.24 |
| C1CCOC1 [tetrahydrofuran] | 0.474 | 1280.1 ± 1.5 | 882.15 ± 0.23 |
